Measurements: patent publication US11331299B2, “Medicinal use of serrulatane diterpenes” (The University of Sydney, priority 2016, dated 2022)
Like-named read-outs stand apart in the source and are kept apart here.

Tested on: 280 human cancer cell lines
Assay: OncoPanel cell proliferation assay (10-day)
Format: cell-based
Settings: Homo sapiens; for EC50: read-out: Cell Count EC50; for IC50: read-out: Cell Count IC50
[1] = SW872, SW872, Soft Tissue - Sarcoma
[2] = SW 954, SW954, Female GU - Vulva
[3] = SW982, SW982, Soft Tissue - Sarcoma
[4] = SW1353, SW1353, Soft Tissue - Osteosarcoma
[5] = TE 125.T, Soft Tissue - Sarcoma
[6] = TE 381.T, Soft Tissue - Sarcoma
[7] = U2OS, Soft Tissue - Osteosarcoma
[8] = U-118-MG, U-118 MG, CNS - Glioma
[9] = VA-ES-BJ, Soft Tissue - Sarcoma
[10] = WM 266-4, WM-266-4, Skin (Melanoma)
[11] = NCI-H295R, Endocrine - Adrenal gland

Structure (SMILES): CC(C)=CCC[C@H](CO)[C@@H]1CC[C@@H](C)c2c1cc(C)c(O)c2O [Compound 1, 7,8,18-trihydroxyserrulat-14-ene]
- EC50 [1]: 0.96 µM
- GI50 (SW872, SW872, Soft Tissue - Sarcoma, read-out: Cell Count GI50): 0.96 µM
- IC50 [1]: 0.96 µM
- EC50 (SW900, SW900, Lung - SCLC): 3.29 µM
- GI50 (SW900, SW900, Lung - SCLC, read-out: Cell Count GI50): 3.24 µM
- IC50 (SW900, SW900, Lung - SCLC): 3.33 µM
- EC50 (SW948, SW948, Colon): 2.21 µM
- GI50 (SW948, SW948, Colon, read-out: Cell Count GI50): 2.2 µM
- IC50 (SW948, SW948, Colon): 2.21 µM
- EC50 [2]: 7.63 µM
- GI50 (SW 954, SW954, Female GU - Vulva, read-out: Cell Count GI50): 7.6 µM
- IC50 [2]: 7.63 µM
- EC50 [3]: 1.07 µM
- GI50 (SW982, SW982, Soft Tissue - Sarcoma, read-out: Cell Count GI50): 1.07 µM
- IC50 [3]: 1.07 µM
- EC50 (SW1088, SW1088, CNS - Glioma): 2.44 µM
- GI50 (SW1088, SW1088, CNS - Glioma, read-out: Cell Count GI50): 2.43 µM
- IC50 (SW1088, SW1088, CNS - Glioma): 2.44 µM
- EC50 [4]: 1 µM
- GI50 (SW1353, SW1353, Soft Tissue - Osteosarcoma, read-out: Cell Count GI50): 0.99 µM
- IC50 [4]: 1 µM
- EC50 (SW1417, SW1417, Colon): 3.15 µM
- GI50 (SW1417, SW1417, Colon, read-out: Cell Count GI50): 3.07 µM
- IC50 (SW1417, SW1417, Colon): 3.15 µM
- EC50 (SW1463, SW1463, Colon): 3.73 µM
- GI50 (SW1463, SW1463, Colon, read-out: Cell Count GI50): 3.71 µM
- IC50 (SW1463, SW1463, Colon): 3.75 µM
- EC50 (SW1783, SW1783, CNS - Glioma): 3.19 µM
- GI50 (SW1783, SW1783, CNS - Glioma, read-out: Cell Count GI50): 3.09 µM
- IC50 (SW1783, SW1783, CNS - Glioma): 3.19 µM
- EC50 (SW-403, SW403, Colon): 8.09 µM
- GI50 (SW-403, SW403, Colon, read-out: Cell Count GI50): 7.89 µM
- IC50 (SW-403, SW403, Colon): 8.11 µM
- EC50 (SW-620, SW620, Colon): 1.48 µM
- GI50 (SW-620, SW620, Colon, read-out: Cell Count GI50): 1.48 µM
- IC50 (SW-620, SW620, Colon): 1.48 µM
- EC50 (SiHa, Female GU - Cervix): 5.22 µM
- GI50 (SiHa, Female GU - Cervix, read-out: Cell Count GI50): 5.17 µM
- IC50 (SiHa, Female GU - Cervix): 5.23 µM
- EC50 (T24, Bladder): 1.44 µM
- GI50 (T24, Bladder, read-out: Cell Count GI50): 1.44 µM
- IC50 (T24, Bladder): 1.44 µM
- GI50 (T47D, Breast, read-out: Cell Count GI50): 4.28 µM
- GI50 (T98G, CNS - Glioma, read-out: Cell Count GI50): 2.05 µM
- EC50 (TCC-SUP, TCCSUP, Bladder): 1.75 µM
- GI50 (TCC-SUP, TCCSUP, Bladder, read-out: Cell Count GI50): 1.72 µM
- IC50 (TCC-SUP, TCCSUP, Bladder): 1.75 µM
- EC50 [5]: 6.47 µM
- GI50 (TE 125.T, Soft Tissue - Sarcoma, read-out: Cell Count GI50): 1.48 µM
- IC50 [5]: 9.21 µM
- EC50 [6]: 1.62 µM
- GI50 (TE 381.T, Soft Tissue - Sarcoma, read-out: Cell Count GI50): 1.59 µM
- IC50 [6]: 1.62 µM
- EC50 (TF-1, Leukemia): 2.11 µM
- GI50 (TF-1, Leukemia, read-out: Cell Count GI50): 1.98 µM
- IC50 (TF-1, Leukemia): 2.11 µM
- EC50 (THP-1, Thp1, Leukemia): 1.38 µM
- GI50 (THP-1, Thp1, Leukemia, read-out: Cell Count GI50): 1.34 µM
- IC50 (THP-1, Thp1, Leukemia): 1.38 µM
- EC50 (TUR, Lymphoma): 5.09 µM
- GI50 (TUR, Lymphoma, read-out: Cell Count GI50): 5.08 µM
- IC50 (TUR, Lymphoma): 5.09 µM
- EC50 [7]: 1.66 µM
- GI50 (U2OS, Soft Tissue - Osteosarcoma, read-out: Cell Count GI50): 1.65 µM
- IC50 [7]: 1.66 µM
- EC50 (U138-MG, U-138MG, CNS - Glioma): 6.29 µM
- GI50 (U138-MG, U-138MG, CNS - Glioma, read-out: Cell Count GI50): 6.15 µM
- IC50 (U138-MG, U-138MG, CNS - Glioma): 6.33 µM
- EC50 (U266B1, Myeloma): 3.22 µM
- GI50 (U266B1, Myeloma, read-out: Cell Count GI50): 3.08 µM
- IC50 (U266B1, Myeloma): 3.22 µM
- EC50 (U-87 MG, CNS - Glioma): 2.12 µM
- GI50 (U-87 MG, CNS - Glioma, read-out: Cell Count GI50): 2.04 µM
- IC50 (U-87 MG, CNS - Glioma): 2.12 µM
- EC50 [8]: 4.56 µM
- GI50 (U-118-MG, U-118 MG, CNS - Glioma, read-out: Cell Count GI50): 4.49 µM
- IC50 [8]: 4.58 µM
- EC50 (UMUC3, UM-UC-3, Bladder): 1.85 µM
- GI50 (UMUC3, UM-UC-3, Bladder, read-out: Cell Count GI50): 1.84 µM
- IC50 (UMUC3, UM-UC-3, Bladder): 1.85 µM
- EC50 [9]: 3.67 µM
- GI50 (VA-ES-BJ, Soft Tissue - Sarcoma, read-out: Cell Count GI50): 3.55 µM
- IC50 [9]: 3.67 µM
- EC50 [10]: 1.15 µM
- GI50 (WM 266-4, WM-266-4, Skin (Melanoma), read-out: Cell Count GI50): 1.14 µM
- IC50 [10]: 1.15 µM
- EC50 (WiDr, Colon): 2.32 µM
- GI50 (WiDr, Colon, read-out: Cell Count GI50): 2.31 µM
- IC50 (WiDr, Colon): 2.32 µM
- EC50 (Y79, Eye): 5.6 µM
- GI50 (Y79, Eye, read-out: Cell Count GI50): 5.33 µM
- IC50 (Y79, Eye): 5.6 µM
- EC50 (YAPC, Pancreas): 1.91 µM
- GI50 (YAPC, Pancreas, read-out: Cell Count GI50): 1.9 µM
- IC50 (YAPC, Pancreas): 1.91 µM
- EC50 [11]: 14.7 µM
- IC50 [11]: 14.7 µM
- EC50 (T47D, Breast): 4.63 µM
- IC50 (T47D, Breast): 4.63 µM
- EC50 (T98G, CNS - Glioma): 2.05 µM
- IC50 (T98G, CNS - Glioma): 2.05 µM
- GI50 (read-out: GI50): 0.4 to 1 µM
